Assay results from patent US10865204B2, “Degradation of cyclin-dependent kinase 4/6 (CDK4/6) by conjugation of CDK4/6 inhibitors with E3 ligase ligand and methods of use” (Dana-Farber Cancer Institute, Inc., priority 2016, dated 2020).

Columns and labels:
[1] = target: T1, CDK4 (Homo sapiens, UniProt P11802); test: Enzyme degradation assay (western blot), Jurkat cells, CDK4; format: cell-based; parameters: levels of CDK4, CDK6, and tubulin in wild-type (WT) or cereblon knockout (CRBN−/−) Molt4 cells; endogenous in cells; details: 5 μM, various time points, FIG. 1
Source text: (§1) Lysates are then cleared by centrifugation.
(§2) Lysates were then cleared by centrifugation.

[2] = target: T1, CDK4; test: Enzyme degradation assay (western blot), Molt4 wild-type cells, CDK4; format: cell-based; parameters: levels of CDK4, CDK6, and tubulin in wild-type (WT) or cereblon knockout (CRBN−/−) Molt4 cells; endogenous in cells; host or cells: Molt4 cells, wild-type or cereblon knockout (CRBN-/-); details: wild-type (WT) Molt4 cells, various concentrations, FIG. 2
Source text: as §1, §2

T1 sequence (P11802 whole entry): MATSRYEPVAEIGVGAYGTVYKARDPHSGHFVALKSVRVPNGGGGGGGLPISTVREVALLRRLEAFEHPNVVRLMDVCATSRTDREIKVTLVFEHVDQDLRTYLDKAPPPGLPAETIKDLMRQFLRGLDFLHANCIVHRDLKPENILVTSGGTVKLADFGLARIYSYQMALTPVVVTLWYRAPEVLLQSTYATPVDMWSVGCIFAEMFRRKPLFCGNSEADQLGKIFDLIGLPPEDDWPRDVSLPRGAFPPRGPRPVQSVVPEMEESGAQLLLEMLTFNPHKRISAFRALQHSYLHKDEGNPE

levels of CDK4 (western blot) [1]: unaffected
levels of CDK4 (western blot) [2]: unaffected
SMILES: CC(=O)c1c(C)c2cnc(Nc3ccc(N4CCN(CC(=O)NCCOCCOCCOCCNc5cccc6c5C(=O)N(C5CCC(=O)NC5=O)C6=O)CC4)cn3)nc2n(C2CCCC2)c1=O (centres unmarked) [Compound I-3, 2-(4-(6-((6-acetyl-8-cyclopentyl-5-methyl-7-oxo-7,8-dihydropyrido[2,3-d]pyrimidin-2-yl)amino)pyridin-3-yl)piperazin-1-yl)-N-(2-(2-(2-(2-((2-(2,6-dioxopiperidin-3-yl)-1,3-dioxoisoindolin-4-yl)amino)ethoxy)ethoxy)ethoxy)ethyl)acetamide]
